Among the data in PubChem BioAssay (NCI) are GI50 and TGI values, retold here.

Some test systems named below: T-47D breast; SR leukemia; COLO 205 colon; LOX IMVI melanoma; CAKI-1 renal; HCT-15 colon; DU-145 prostate; A498 renal; MDA-MB-231 breast; HL-60(TB) leukemia.
Test in all cases: growth of human tumour cells (NCI), 48 h

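1) Cells in 96-well plates. 2) Compound, 48 h, 5 concentrations. 3) Linear interpolation between surrounding doses. 4) Unreached endpoint = highest concentration. Abbreviation: GI50, concentration required for 50% inhibition of growth. TGI: total growth inhibition.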 Some results are limits rather than exact numbers.

In the case of `COc1ccn2c(C(C)=O)cc(C(=O)c3ccc4c(c3)Sc3ccccc3N4)c2c1`, the GI50 in the experiment with T-47D breast is 44.7 µM; in the experiment on SR leukemia it was 56.7 nM; in the experiment with COLO 205 colon, 72.4 nM; with LOX IMVI melanoma, 150 nM; in the experiment on CAKI-1 renal, 52.7 nM; with HCT-15 colon, 98.2 nM. Moreover, the GI50 was 122 nM with DU-145 prostate, 64 nM with A498 renal and 155 nM in the experiment with MDA-MB-231 breast. Further, the TGI with T-47D breast is above 100 µM; with SR leukemia, above 100 µM; in the experiment on COLO 205 colon it was 0.183 µM; in the experiment with LOX IMVI melanoma it was above 100 µM; with CAKI-1 renal, above 100 µM; in the experiment with DU-145 prostate it was above 100 µM. In addition, the TGI in the experiment with A498 renal was determined as 251 nM; with MDA-MB-231 breast, 10.6 µM.
For the molecule `NC(=NC1CCCCCCC1)c1ccc(N2CCN(c3ccc(C(N)=NC4CCCCCCC4)cc3)CC2)cc1`, the GI50 in the experiment with T-47D breast was 25.8 µM; in the experiment with SR leukemia, 26600 nM; in the experiment with COLO 205 colon, 13300 nM; in the experiment with LOX IMVI melanoma, above 100000 nM; with CAKI-1 renal it was 23100 nM; with HCT-15 colon, 31800 nM. The GI50 with DU-145 prostate was 1940 nM; with HL-60(TB) leukemia it was 16000 nM; in the experiment on MDA-MB-231 breast it was 12500 nM. The TGI in the experiment on T-47D breast was above 100 µM; with SR leukemia, above 100 µM; with COLO 205 colon, 39.3 µM; in the experiment on LOX IMVI melanoma, above 100 µM; with CAKI-1 renal it was 63.1 µM; in the experiment with HCT-15 colon, above 100 µM. The TGI was 12.6 µM in the experiment on DU-145 prostate, above 100 µM in the experiment on HL-60(TB) leukemia and 30.6 µM in the experiment on MDA-MB-231 breast.
Regarding `COc1cc2c3c(n(CCCNCC(OC)OC)c(=O)c2cc1OC)-c1cc2c(cc1C3=O)OCO2`, the GI50 was below 10 nM in the experiment with SR leukemia; 14000 nM in the experiment on COLO 205 colon; 1460 nM in the experiment on LOX IMVI melanoma; 219 nM in the experiment on CAKI-1 renal; 17300 nM with HCT-15 colon; 399 nM in the experiment with DU-145 prostate. Besides, the GI50 in the experiment with A498 renal was 14000 nM; with HL-60(TB) leukemia it was 2600 nM; with MDA-MB-231 breast it was 3090 nM. Besides, the TGI in the experiment with COLO 205 colon was above 61.1 µM; in the experiment with LOX IMVI melanoma, above 29.8 µM; in the experiment on CAKI-1 renal, 17.2 µM; in the experiment on HCT-15 colon, above 100 µM; with DU-145 prostate it was 13.7 µM; with A498 renal, 33900 nM. Moreover, the TGI was above 28.3 µM in the experiment on HL-60(TB) leukemia and 20 µM with MDA-MB-231 breast.
Consider `CCN(CCNc1ccc(C)c2sc3cc(Cl)ccc3c(=O)c12)CC(C)O` (configuration not stated), for which the GI50 in the experiment with T-47D breast is 1.76 µM; with COLO 205 colon, 1720 nM; in the experiment on LOX IMVI melanoma, 1850 nM; in the experiment with CAKI-1 renal, 643 nM; in the experiment on HCT-15 colon, 2330 nM; in the experiment on DU-145 prostate it was 3870 nM. The GI50 in the experiment on A498 renal was 1490 nM; in the experiment with HL-60(TB) leukemia it was 1700 nM; with MDA-MB-231 breast it was 1990 nM. Moreover, the TGI in the experiment on T-47D breast came to 4.14 µM; with COLO 205 colon it was 3.24 µM; in the experiment on LOX IMVI melanoma, 3.72 µM; with CAKI-1 renal, 2.49 µM; with HCT-15 colon, 5.85 µM; in the experiment with DU-145 prostate, 18.2 µM. The results for the TGI with A498 renal, in the experiment with HL-60(TB) leukemia and in the experiment with MDA-MB-231 breast were 2870 nM, 3.35 µM and 4.17 µM, respectively.
Regarding `CC(C)C[C@H](NC(=O)[C@H]1O[C@@H]1C(=O)O)C(=O)NCCc1ccc(O)cc1`, the GI50 with T-47D breast was above 100 µM; in the experiment with COLO 205 colon it was above 100000 nM; with LOX IMVI melanoma, 74100 nM; in the experiment on CAKI-1 renal, above 100000 nM; with HCT-15 colon it was above 100000 nM; with DU-145 prostate, above 100000 nM. The GI50 in the experiment on MDA-MB-231 breast is above 100000 nM. Further, the TGI with T-47D breast, with COLO 205 colon, in the experiment with LOX IMVI melanoma, in the experiment with CAKI-1 renal, in the experiment with HCT-15 colon and in the experiment with DU-145 prostate was above 100 µM throughout. Moreover, in the experiment on MDA-MB-231 breast, the TGI was above 100 µM.
For `CC(C)(O)C1CCC(Nc2ccc3ncc(-c4cccc(C(F)(F)F)c4)n3n2)CC1` (configuration not stated), the GI50 in the experiment on T-47D breast is 1.5 µM; in the experiment with SR leukemia, 1870 nM; in the experiment on COLO 205 colon it was 2620 nM; in the experiment with LOX IMVI melanoma it was 1560 nM; in the experiment with CAKI-1 renal, 1670 nM; in the experiment with HCT-15 colon it was 2170 nM. Moreover, the GI50 is 3520 nM in the experiment on DU-145 prostate, 1480 nM in the experiment with A498 renal and 1960 nM with MDA-MB-231 breast. The TGI with T-47D breast was 5.13 µM; in the experiment with SR leukemia, 11.1 µM; in the experiment on COLO 205 colon, 21.5 µM; in the experiment with LOX IMVI melanoma, 4.23 µM; in the experiment on CAKI-1 renal, 7.16 µM; in the experiment with HCT-15 colon, 11.3 µM. In addition, the TGI with DU-145 prostate stood at 14.8 µM; in the experiment on A498 renal it was 4490 nM; in the experiment with MDA-MB-231 breast, 14 µM.
Turning to `C=CCNCCCN1C(=O)c2ccc3c4c(ccc(c24)C1=O)C(=O)N(CCCNCC=C)C3=O`, the GI50 is 407 nM in the experiment on SR leukemia; 172 nM with COLO 205 colon; 316 nM in the experiment with LOX IMVI melanoma; 340 nM in the experiment on CAKI-1 renal; 413 nM with HCT-15 colon; 311 nM with DU-145 prostate. Moreover, the GI50 was 394 nM with A498 renal, 383 nM with HL-60(TB) leukemia and 681 nM with MDA-MB-231 breast. Further, the TGI with SR leukemia turned out to be 2.08 µM; with COLO 205 colon, 0.335 µM; in the experiment with LOX IMVI melanoma, 0.97 µM; in the experiment with CAKI-1 renal it was 1.97 µM; with HCT-15 colon, 2.38 µM; in the experiment with DU-145 prostate it was 0.857 µM. Also, the results for the TGI in the experiment with A498 renal, in the experiment on HL-60(TB) leukemia and with MDA-MB-231 breast were 1760 nM, 1.41 µM and 5.91 µM, respectively.
On to `COc1ccc(-c2cnnn2-c2cc(OC)c3c(c2)OCO3)cc1`, for which the GI50 in the experiment with SR leukemia was 46.6 nM; in the experiment on COLO 205 colon, 57.8 nM; in the experiment on LOX IMVI melanoma, 491 nM; in the experiment on CAKI-1 renal, 118 nM; with HCT-15 colon it was 48.1 nM; in the experiment on DU-145 prostate it was 291 nM. For the same molecule, the values for the GI50 with A498 renal, in the experiment with HL-60(TB) leukemia and in the experiment with MDA-MB-231 breast were 44.4 nM, 76.1 nM and 194 nM, respectively. Further, the TGI in the experiment on SR leukemia was above 51.7 µM; in the experiment with COLO 205 colon, 0.52 µM; with LOX IMVI melanoma, above 100 µM; in the experiment on CAKI-1 renal, above 100 µM; with HCT-15 colon, above 100 µM; in the experiment with A498 renal, 633 nM. The TGI in the experiment on HL-60(TB) leukemia was determined as 2.72 µM; in the experiment with MDA-MB-231 breast, 4.63 µM.
